9 molecules from US20170349593A1, “BTK INHIBITORS” (MERCK SHARP & DOHME CORP., priority 2014, published 2017) can be followed below.

Assay [1] has as its system adenosine uptake into HeLa cells. Kind of assay: [3H]Adenosine uptake assay. The assay is classed as cell-based. To be noted: Homo sapiens; accumulation of [3H]adenosine into HeLa cells; concentration range 10 μM to 0.032 nM; read-out: ADU inhibition IC50. In a few lines:
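HeLa cells (25 000/well), plated overnight, were preincubated 30 minutes at ambient temperature with compound in HBSS + 5% FBS. Ten-point titrations ran from 10 μM to 0.032 nM final. [3H]adenosine was added from a 500 nM solution for 60 minutes, and uptake was measured by scintillation proximity counting; IC50 came from a 4-parameter fit.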

In assay [2] the target is T1, BTK enzyme (recombinant full-length BTK, hBTK) (Homo sapiens, UniProt Q06187).
T1 construct: recombinant protein from baculovirus-transfected S 19 cells: full-length BTK, 6 HIS-tag cleaved; 6 HIS-tag (cleaved yes); made in house
Kind of assay: Btk enzyme activity assay (LANCE TR-FRET). The assay is classed as biochemical. To be noted: 50 pM hBTK, 25 μM ATP, 60 minute compound and enzyme incubation, concentration range 1 μM to 0.017 nM, read-out: BTK binding IC50. Background: TR-FRET usually uses a lanthanide donor and a delayed reading to cut background.

Broadly, the IC50 is the concentration that gives 50% inhibition.

T1 sequence (Q06187 whole entry): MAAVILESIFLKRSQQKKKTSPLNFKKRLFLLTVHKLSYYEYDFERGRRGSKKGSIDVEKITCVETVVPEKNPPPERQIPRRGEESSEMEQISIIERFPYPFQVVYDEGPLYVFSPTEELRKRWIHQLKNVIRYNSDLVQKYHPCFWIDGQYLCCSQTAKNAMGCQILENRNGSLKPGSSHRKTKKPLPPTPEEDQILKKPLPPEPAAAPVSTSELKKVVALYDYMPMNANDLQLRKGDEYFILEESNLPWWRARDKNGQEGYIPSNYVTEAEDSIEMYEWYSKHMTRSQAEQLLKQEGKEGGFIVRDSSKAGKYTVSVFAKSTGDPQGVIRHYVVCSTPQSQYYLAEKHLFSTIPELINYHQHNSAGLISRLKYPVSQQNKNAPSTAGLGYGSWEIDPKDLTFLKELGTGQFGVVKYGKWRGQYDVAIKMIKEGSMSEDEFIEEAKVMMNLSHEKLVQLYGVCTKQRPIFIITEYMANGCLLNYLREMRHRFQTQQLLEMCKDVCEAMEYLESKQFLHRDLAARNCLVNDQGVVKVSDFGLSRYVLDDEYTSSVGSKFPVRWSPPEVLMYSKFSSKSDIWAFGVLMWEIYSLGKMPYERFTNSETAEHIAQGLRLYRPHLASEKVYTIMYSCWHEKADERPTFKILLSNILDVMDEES

Consider `CCOc1cc(C(=O)Nc2cc(C(F)(F)F)ccn2)ccc1-c1nc([C@H]2CN(C(=O)[C@H](C)O)[C@@H](C)CO2)n2c(F)cnc(N)c12` [Example 106, 4-(8-amino-5-fluoro-3-{(2R,5S)-4-[(2S)-2-hydroxypropanoyl]-5-methylmorpholin-2-yl}imidazo[1,5-a]pyrazin-1-yl)-3-ethoxy-N-[4-(trifluoromethyl)pyridin-2-yl]benzamide], for which the IC50 worked out at 6250 nM in assay [1] and 4.31 nM in assay [2].
The matching figures for `CCOc1cc(C(=O)Nc2cc(C(F)(F)F)ccn2)cc(F)c1-c1nc([C@H]2CN(C(=O)[C@@H](C)O)[C@@H](C)CO2)n2c(Cl)cnc(N)c12` [Example 107, 4-(8-amino-5-chloro-3-{(2R,5S)-4-[(2R)-2-hydroxypropanoyl]-5-methylmorpholin-2-yl}imidazo[1,5-a]pyrazin-1-yl)-3-ethoxy-5-fluoro-N-[4-(trifluoromethyl)pyridin-2-yl]benzamide]: 1990 nM and 0.479 nM.
On the same counts, the results for `CCOc1cc(C(=O)Nc2cc(C(F)(F)F)ccn2)ccc1-c1nc([C@H]2CN(C3CCS(=O)(=O)CC3)[C@@H](C)CO2)n2c(Cl)cnc(N)c12` [Example 108, 4-{8-amino-5-chloro-3-[(2R,5S)-4-(1,1-dioxidotetrahydro-2H-thiopyran-4-yl)-5-methylmorpholin-2-yl]imidazo[1,5-a]pyrazin-1-yl}-3-ethoxy-N-[4-(trifluoromethyl)pyridin-2-yl]benzamide] are 1320 nM and 1.8 nM.
On the same counts, the results for `CCOc1cc(C(=O)Nc2cc(C(F)(F)F)n(C)n2)ccc1-c1nc([C@@H]2CC[C@H](C)N(C(=O)[C@@H](C)O)C2)n2ccnc(N)c12` [Example 109, 4-(8-amino-3-{(3R,6S)-1-[(2R)-2-hydroxypropanoyl]-6-methylpiperidin-3-yl}imidazo[1,5-a]pyrazin-1-yl)-3-ethoxy-N-[1-methyl-5-(trifluoromethyl)-1H-pyrazol-3-yl]benzamide] are 3340 nM and 0.403 nM.
For `CCc1cnc(N)c2c(-c3ccc(C(=O)Nc4cc(C(F)(F)F)ccn4)cc3F)nc([C@H]3CN(C(=O)C4CC4)[C@@H](C)CO3)n12` [Example 110, 4-{8-amino-3-[(2R,5S)-4-(cyclopropylcarbonyl)-5-methylmorpholin-2-yl]-5-ethylimidazo[1,5-a]pyrazin-1-yl}-3-fluoro-N-[4-(trifluoromethyl)pyridin-2-yl]benzamide], the figures for the IC50 in assay [1] and in assay [2] were 533 nM and 0.674 nM, respectively.
On the same counts, the results for `CCOc1cc(C(=O)Nc2cc(C(F)(F)F)ccn2)ccc1-c1nc([C@@H]2CC[C@H](C)N(C(=O)[C@@H](C)O)C2)n2c(Cl)cnc(N)c12` [Example 111, 4-(8-amino-5-chloro-3-{(3R,6S)-1-[(2R)-2-hydroxypropanoyl]-6-methylpiperidin-3-yl}imidazo[1,5-a]pyrazin-1-yl)-3-ethoxy-N-[4-(trifluoromethyl)pyridin-2-yl]benzamide] are 982 nM and 0.274 nM.
Turning to `Nc1c(N[C@H]2C[C@H](c3nc(-c4ccc(C(=O)Nc5cc(C(F)(F)F)ccn5)cc4)c4c(N)nccn43)C2)c(=O)c1=O` [Example 112, 4-(8-amino-3-{trans-3-[(2-amino-3,4-dioxocyclobut-1-en-1-yl)amino]cyclobutyl}imidazo[1,5-a]pyrazin-1-yl)-N-[4-(trifluoromethyl)pyridin-2-yl]benzamide], the IC50 in assay [1] was found to be 2270 nM; in assay [2], 0.254 nM.
On the same counts, the results for `CNc1c(N[C@H]2C[C@H](c3nc(-c4ccc(C(=O)Nc5cc(C(F)(F)F)ccn5)cc4)c4c(N)nccn43)C2)c(=O)c1=O` [Example 113, 4-[8-amino-3-(trans-3-{[2-(methylamino)-3,4-dioxocyclobut-1-en-1-yl]amino}cyclobutyl)imidazo[1,5-a]pyrazin-1-yl]-N-[4-(trifluoromethyl)pyridin-2-yl]benzamide] are 2940 nM and 0.166 nM.
On the same counts, the results for `Nc1nccn2c1c(-c1ccc(C(=O)Nc3cc(C(F)(F)F)ccn3)cc1)nc2[C@H]1C[C@H](Nc2c(NC3CC3)c(=O)c2=O)C1` [Example 114, 4-[8-amino-3-(trans-3-{[2-(cyclopropylamino)-3,4-dioxocyclobut-1-en-1-yl]amino}cyclobutyl)imidazo[1,5-a]pyrazin-1-yl]-N-[4-(trifluoromethyl)pyridin-2-yl]benzamide] are 925 nM and 0.327 nM.
